Test results reported in the supplement of paper PMC6045584.
± gives the standard deviation of the averaged measurements.

Tests used:
[1] = compound: CNCc1ccc(-c2[nH]c3cc(F)cc4c3c2CCNC4=O)cc1; test: surviving fraction relative to DMSO-only wells; higher = less growth inhibition; conditions: exposure time: 5 days
How it was run: (§1)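 Log-phase tumour cell lines were seeded at 250–500 cells per well in 384-well plates. After 24 hours they were exposed continuously for five days to inhibitors at 0.5, 1, 5, 10, 50, 100, 500 and 1000 nM. Viability was read by CellTiter-Glo luminescence after 10 minutes at room temperature, and surviving fraction is luminescence normalised to the median of DMSO-only wells. Each line was screened three times and kept only if replicate Pearson r >0.7 and median Z' >0.3.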

OLAPARIB = compound: O=C(c1cc(Cc2n[nH]c(=O)c3ccccc23)ccc1F)N1CCN(C(=O)C2CC2)CC1 [OLAPARIB]; test: as above; conditions: exposure time: 5 days
How it was run: as §1

Row | Test System | surviving fraction ([1]; 0.5 nM) | surviving fraction ([1]; 1 nM) | surviving fraction ([1]; 5 nM) | surviving fraction ([1]; 10 nM) | surviving fraction ([1]; 50 nM) | surviving fraction ([1]; 100 nM) | surviving fraction ([1]; 500 nM) | surviving fraction ([1]; 1000 nM) | surviving fraction (OLAPARIB; 0.5 nM) | surviving fraction (OLAPARIB; 1 nM) | surviving fraction (OLAPARIB; 5 nM) | surviving fraction (OLAPARIB; 10 nM) | surviving fraction (OLAPARIB; 50 nM) | surviving fraction (OLAPARIB; 100 nM) | surviving fraction (OLAPARIB; 500 nM) | surviving fraction (OLAPARIB; 1000 nM)
1 | 22RV1 PROSTATE | 1.09 ± 0.051 | 1.13 ± 0.09 | 1.02 ± 0.075 | 0.968 ± 0.12 | 1.28 ± 0.32 | 1.04 ± 0.061 | 1.014 ± 0.0031 | 1.11 ± 0.24 | 1.08 ± 0.029 | 1.04 ± 0.044 | 1.05 ± 0.036 | 1.01 ± 0.09 | 1.06 ± 0.031 | 1 ± 0.05 | 1.04 ± 0.049 | 0.997 ± 0.051
2 | 93VU HEADNECK | 0.958 ± 0.074 | 0.994 ± 0.09 | 1.08 ± 0.081 | 1.01 ± 0.028 | 0.892 ± 0.07 | 0.859 ± 0.063 | 0.927 ± 0.04 | 0.894 ± 0.036 | 1.02 ± 0.1 | 1.01 ± 0.074 | 1.12 ± 0.033 | 1.07 ± 0.09 | 0.955 ± 0.072 | 0.955 ± 0.03 | 0.92 ± 0.049 | 0.837 ± 0.096
3 | 143B BONE | 1.02 ± 0.037 | 1.04 ± 0.011 | 1.07 ± 0.037 | 1.1 ± 0.073 | 1.11 ± 0.14 | 1.04 ± 0.046 | 1.07 ± 0.15 | 1.04 ± 0.067 | 1.025 ± 0.0014 | 1.044 ± 0.0092 | 1.04 ± 0.019 | 1 ± 0.025 | 1.05 ± 0.027 | 1.01 ± 0.017 | 1.02 ± 0.023 | 0.9915 ± 0.005
4 | A549 LUNG | 1.1 ± 0.039 | 1.07 ± 0.03 | 1.057 ± 0.0071 | 1.06 ± 0.029 | 1.14 ± 0.066 | 1.05 ± 0.06 | 1.08 ± 0.027 | 1.08 ± 0.034 | 1.06 ± 0.036 | 1.07 ± 0.042 | 1.06 ± 0.031 | 1.05 ± 0.035 | 1.06 ± 0.025 | 1.04 ± 0.045 | 1.09 ± 0.021 | 1.02 ± 0.057
5 | ASKA SYNOVIAL | 1.1 ± 0.024 | 1.04 ± 0.072 | 1.04 ± 0.07 | 0.987 ± 0.017 | 0.887 ± 0.053 | 0.72 ± 0.019 | 0.653 ± 0.1 | 0.585 ± 0.057 | 1.16 ± 0.13 | 1.13 ± 0.043 | 1.14 ± 0.096 | 1.06 ± 0.09 | 0.936 ± 0.051 | 0.921 ± 0.044 | 0.772 ± 0.056 | 0.655 ± 0.071
6 | BT20 BREAST | 1.09 ± 0.095 | 1.05 ± 0.055 | 1.03 ± 0.081 | 1.04 ± 0.059 | 0.792 ± 0.14 | 0.814 ± 0.046 | 0.815 ± 0.11 | 0.872 ± 0.014 | 0.996 ± 0.12 | 1.14 ± 0.055 | 0.942 ± 0.14 | 1.04 ± 0.096 | 0.757 ± 0.1 | 0.732 ± 0.13 | 0.795 ± 0.21 | 0.773 ± 0.085
7 | BT549 BREAST | 0.958 ± 0.011 | 1.01 ± 0.16 | 0.972 ± 0.078 | 1.04 ± 0.081 | 0.753 ± 0.13 | 0.818 ± 0.073 | 0.828 ± 0.069 | 0.881 ± 0.056 | 1.03 ± 0.096 | 1.01 ± 0.064 | 0.941 ± 0.0053 | 0.9883 ± 0.0074 | 0.686 ± 0.041 | 0.719 ± 0.062 | 0.718 ± 0.033 | 0.598 ± 0.048
8 | C33A CERVIX | 0.991 ± 0.071 | 0.993 ± 0.078 | 1.02 ± 0.085 | 0.937 ± 0.095 | 1.09 ± 0.13 | 0.963 ± 0.041 | 1.25 ± 0.024 | 0.707 ± 0.0089 | 1.04 ± 0.098 | 1.04 ± 0.02 | 1.07 ± 0.049 | 1.03 ± 0.017 | 1.05 ± 0.098 | 0.998 ± 0.14 | 0.895 ± 0.068 | 0.841 ± 0.11
9 | CADOES1 SOFT TISSUE | 1 ± 0.21 | 0.975 ± 0.19 | 0.903 ± 0.081 | 0.838 ± 0.045 | 1.02 ± 0.068 | 0.856 ± 0.12 | 0.799 ± 0.14 | 0.715 ± 0.22 | 1.01 ± 0.059 | 0.855 ± 0.072 | 1.03 ± 0.07 | 0.8393 ± 0.0035 | 0.951 ± 0.046 | 0.953 ± 0.076 | 0.895 ± 0.084 | 0.81 ± 0.14
10 | CAL51 BREAST | 0.935 ± 0.033 | 0.96 ± 0.04 | 0.927 ± 0.023 | 0.848 ± 0.052 | 0.954 ± 0.019 | 0.819 ± 0.021 | 0.706 ± 0.035 | 0.604 ± 0.021 | 0.97 ± 0.044 | 1 ± 0.051 | 0.95 ± 0.025 | 0.926 ± 0.07 | 0.948 ± 0.03 | 0.882 ± 0.076 | 0.828 ± 0.024 | 0.66 ± 0.051
11 | CAL72 BONE | 1.09 ± 0.041 | 1.072 ± 0.0085 | 1.1 ± 0.026 | 1.08 ± 0.016 | 0.999 ± 0.073 | 0.961 ± 0.075 | 0.962 ± 0.032 | 0.902 ± 0.019 | 1.05 ± 0.017 | 1.098 ± 0.0086 | 1.0433 ± 0.00058 | 1.06 ± 0.033 | 0.98 ± 0.029 | 0.958 ± 0.027 | 0.949 ± 0.021 | 0.901 ± 0.029
12 | CAL120 BREAST | 1.04 ± 0.047 | 0.995 ± 0.075 | 0.984 ± 0.044 | 1.01 ± 0.043 | 0.945 ± 0.026 | 0.929 ± 0.056 | 0.926 ± 0.057 | 0.918 ± 0.043 | 0.9857 ± 0.0086 | 0.998 ± 0.018 | 1 ± 0.023 | 0.973 ± 0.024 | 0.979 ± 0.01 | 0.942 ± 0.04 | 0.892 ± 0.013 | 0.825 ± 0.043
13 | CASKI CERVIX | 0.893 ± 0.022 | 0.968 ± 0.014 | 0.992 ± 0.015 | 0.939 ± 0.024 | 0.89 ± 0.03 | 0.898 ± 0.077 | 0.923 ± 0.12 | 0.848 ± 0.034 | 0.921 ± 0.029 | 0.947 ± 0.057 | 0.993 ± 0.051 | 0.982 ± 0.015 | 0.859 ± 0.016 | 0.844 ± 0.026 | 0.749 ± 0.075 | 0.765 ± 0.068
14 | CHLA90 AUTONOMIC GANGLIA | 0.97 ± 0.049 | 1.01 ± 0.068 | 0.961 ± 0.039 | 0.987 ± 0.043 | 0.993 ± 0.095 | 1.03 ± 0.023 | 1.01 ± 0.038 | 1.03 ± 0.033 | 1.02 ± 0.065 | 1.07 ± 0.037 | 1.01 ± 0.035 | 0.993 ± 0.048 | 0.95 ± 0.052 | 1.01 ± 0.078 | 0.963 ± 0.061 | 0.966 ± 0.059
15 | CME SYNOVIAL | 1.16 ± 0.072 | 1.25 ± 0.097 | 1.11 ± 0.18 | 1.11 ± 0.18 | 0.693 ± 0.18 | 0.556 ± 0.094 | 0.373 ± 0.08 | 0.301 ± 0.015 | 1.29 ± 0.3 | 1.27 ± 0.059 | 1.23 ± 0.11 | 1.16 ± 0.22 | 0.737 ± 0.14 | 0.616 ± 0.051 | 0.386 ± 0.053 | 0.303 ± 0.021
16 | COLO320DM LARGE INTESTINE | 1.04 ± 0.067 | 1.05 ± 0.021 | 1.12 ± 0.027 | 0.962 ± 0.1 | 0.96 ± 0.04 | 0.933 ± 0.12 | 0.933 ± 0.066 | 0.901 ± 0.014 | 1.13 ± 0.19 | 0.997 ± 0.15 | 1.09 ± 0.046 | 1.03 ± 0.21 | 1.07 ± 0.091 | 1.03 ± 0.082 | 1.06 ± 0.048 | 0.991 ± 0.03
